In US20070032448A1, “Sugar modified nucleosides as viral replication inhibitors” (priority 2002, published 2007):
Read-outs that look alike come from different tables or passages of the source.

How the values were obtained:
[1] = tested on: HCV replicon RNA in replicon cells (Huh-7); experiment: HCV replicon assay; type: cell-based, Hepatitis C virus
Procedure: The replicon cells (Huh-7) contain replicating HCV replicon RNA, which was modified in the structural region (replacing the structural region with a neomycin resistance marker). Survival of the replicon cells under G418 selection relies on the replication of HCV RNA and subsequently expression of neomycin phosphoryltransferase. The ability of modified nucleoside libraries and compounds to suppress HCV RNA replication was determined using the Quantigene Assay Kit from Bayer. The assay measures the reduction of HCV RNA molecules in the treated cells. Replicon cells were incubated at 37° C. for 3 days in the presence of nucleoside libraries and compounds before harvested for detection. An HCV subgenomic replicon cell line was provided by Dr. Bartenschlager. The assay protocol was modified based on literature procedure (V. Lohmann, F. Korner, J. O. Koch, U. Herian, L. Theilmann, R. Bartenschlager, Science, 1999, 285, 110-113).

mice = experiment: Toxicity in mice; type: in vivo; conditions: 160 mg/kg dosing
[2] = Pharmacokinetics, intravenous and oral dosing; type: in vivo
[3] = Hepatitis C virus, 72 h, 2′-beta-methyl cytidine and uridine derivatives, Huh-7 replicon cells, 3 days, read-out: HCV REPLICON EC50
[4] = 2′-beta-6-substituted adenosine derivatives, Huh-7 replicon cells, 3 days, read-out: HCV Replicon EC50
[5] = Hepatitis C virus, Huh-7, 72 h, read-out: HCV Replicon EC50

Row | SMILES | EC50 [1, 4] [µM] | EC50 [1, 5] [µM] | further results
1 | Cc1cn([C@@H]2O[C@H](CO)[C@@H](O)[C@@]2(C)O)c(=O)nc1N(C)C [Compound P44] | – | – | EC50 [1, 3]: > 100 µM
2 | Cc1cn([C@@H]2O[C@H](CO)[C@@H](O)[C@@]2(C)O)c(=O)nc1O [Compound P42] | – | – | EC50 [1, 3]: > 100 µM
3 | CN(C)c1ncnc2c1ncn2[C@@H]1O[C@H](CO)[C@@H](O)[C@]1(O)C1CC1 [Compound P18, N^6-Dimethyl-2′-C-cyclopropylyladenosine] | > 100 | – | –
4 | CSc1ncnc2c1ncn2[C@@H]1O[C@H](CO)[C@@H](O)[C@@]1(C)O [Compound P24, 6-Thiomethyl-9H-(2′-C-methyl-β-D-ribofuranosyl)adenine] | < 10 | – | body weight, food consumption, and behavior (mice): normal; tissue and organ abnormalities (mice): No tissue and organ abnormalities were observed; toxicity (mice): did not show toxicity; increase of bioavailability compared to Ribavirin ([2]; in vivo): approximately 4 times; AUC ([2]; intravenous dosing): 1950.6 ng·h/mL; C0 ([2]; intravenous dosing): 3452.4 ng/mL; t1/2b ([2]; intravenous dosing): 25.8 min; AUC ([2]; oral dosing): 1953.5 ng·h/mL; Cmax ([2]; oral dosing): 1085.0 ng/mL; Tmax ([2]; oral dosing): 45 min; t1/2β ([2]; oral dosing): 71.4 min; bioavailability ([2]; oral vs intravenous dosing): 100%
5 | CNc1ncnc2c1ncn2[C@@H]1O[C@H](CO)[C@@H](O)[C@@]1(C)O [Compound P22, N^6-Methyl-9H-(2′-C-methyl-β-D-ribofuranosyl)adenine] | < 10 | – | –
6 | C[C@@]1(O)[C@H](O)[C@@H](CO)O[C@H]1n1ccc(N)nc1=O [Compound P37, 2′-β-C-Methylcytidine] | – | – | EC50 [1, 3]: < 10 µM
7 | CC[C@@]1(O)[C@H](O)[C@@H](CO)O[C@H]1n1cnc2c(SC)ncnc21 [Compound P9, 9-(2-C-Ethyl-β-D-ribofuranosyl)-6-methylmercaptopurine] | – | > 100 | –
8 | C=C[C@@]1(O)[C@H](O)[C@@H](CO)O[C@H]1n1cnc2c(N(C)C)ncnc21 [Compound P13, N^6-Dimethyl-2′-C-vinyladenosine] | > 100 | – | –
9 | CC[C@@]1(O)[C@H](O)[C@@H](CO)O[C@H]1n1cnc2c(NC)ncnc21 [Compound P7, N^6-Methyl-2′-C-ethyladenosine] | – | > 100 | –
10 | CC[C@@]1(O)[C@H](O)[C@@H](CO)O[C@H]1n1cnc2c(OC)ncnc21 [Compound P10, 9-(2-C-ethyl-β-D-ribofuranosyl)-6-methoxy-purine] | – | > 100 | –
11 | Cc1cn([C@@H]2O[C@H](CO)[C@@H](O)[C@@]2(C)O)c(=O)nc1N [Compound P38] | – | – | EC50 [1, 3]: > 100 µM
12 | C=C[C@@]1(O)[C@H](O)[C@@H](CO)O[C@H]1n1cnc2c(NC)ncnc21 [Compound P12, N^6-Methyl-2′-C-vinyladenosine] | – | > 100 | –
13 | C=C[C@@]1(O)[C@H](O)[C@@H](CO)O[C@H]1n1cnc2c(SC)ncnc21 [Compound P14, 9-(2-C-Vinyl-β-D-ribofuranosyl)-6-methylmercaptopurine] | – | > 100 | –
14 | CNc1nc(=O)n([C@@H]2O[C@H](CO)[C@@H](O)[C@@]2(C)O)cc1C [Compound P43] | – | – | EC50 [1, 3]: > 100 µM
15 | C[C@@]1(O)[C@H](O)[C@@H](CO)O[C@H]1n1cnc2c(N)ncnc21 [Compound P21] | < 10 | – | –
16 | Nc1ncnc2c1ncn2[C@@H]1O[C@H](CO)[C@@H](O)[C@]1(O)C1CC1 [Compound P16, 2′-C-Cyclopropyladenosine] | – | > 100 | –
17 | CNc1ncnc2c1ncn2[C@@H]1O[C@H](CO)[C@@H](O)[C@]1(O)C1CC1 [Compound P17, N^6-Methyl-2′-C-cyclopropylyladenosine] | > 100 | – | –
18 | C[C@@]1(O)[C@H](O)[C@@H](CO)O[C@H]1n1ccc(O)nc1=O [Compound P39] | – | – | EC50 [1, 3]: > 100 µM
19 | CC[C@@]1(O)[C@H](O)[C@@H](CO)O[C@H]1n1cnc2c(N(C)C)ncnc21 [Compound P8, N^6-Dimethyl-2′-C-ethyladenosine] | > 100 | – | –
20 | COc1ncnc2c1ncn2[C@@H]1O[C@H](CO)[C@@H](O)[C@]1(O)C1CC1 [Compound P20, 9-(2-C-cyclopropyl-β-D-ribofuranosyl)-6-methoxypurine] | – | > 100 | –
21 | CC[C@@]1(O)[C@H](O)[C@@H](CO)O[C@H]1n1cnc2c(N)ncnc21 [Compound P6, 2′-C-Ethyladenosine] | – | > 100 | –
22 | CSc1ncnc2c1ncn2[C@@H]1O[C@H](CO)[C@@H](O)[C@]1(O)C1CC1 [Compound P19, 9-(2-C-Cyclopropyl-β-D-ribofuranosyl)-6-methylmercaptopurine] | – | > 100 | –
23 | CN(C)c1ncnc2c1ncn2[C@@H]1O[C@H](CO)[C@@H](O)[C@@]1(C)O [Compound P23, N^6-Dimethyl-9H-(2′-C-methyl-β-D-ribofuranosyl)adenine] | < 10 | – | –
24 | CNc1ccn([C@@H]2O[C@H](CO)[C@@H](O)[C@@]2(C)O)c(=O)n1 [Compound P40] | – | – | EC50 [1, 3]: > 100 µM
25 | C=C[C@@]1(O)[C@H](O)[C@@H](CO)O[C@H]1n1cnc2c(N)ncnc21 [Compound P11, 2′-C-Vinyladenosine] | – | > 100 | –
26 | C=C[C@@]1(O)[C@H](O)[C@@H](CO)O[C@H]1n1cnc2c(OC)ncnc21 [Compound P15, 9-(2-C-vinyl-β-D-ribofuranosyl)-6-methoxy-purine] | – | > 100 | –
27 | CN(C)c1ccn([C@@H]2O[C@H](CO)[C@@H](O)[C@@]2(C)O)c(=O)n1 [Compound P41] | – | – | EC50 [1, 3]: > 100 µM
28 | COc1ncnc2c1ncn2[C@@H]1O[C@H](CO)[C@@H](O)[C@@]1(C)O [Compound P25] | < 10 | – | –
